Measured values reported in patent US20260167656A1, “PHOSPHORAMIDATE COMPOUNDS AND USES THEREOF” (ALLORION THERAPEUTICS INC, priority 2022, published 2026).

How the values were obtained:
[1] = test system: non-small cell lung cancer cell line H460; assay: In vitro human cancer cell line cytotoxicity (proliferation) assay in H460, CellTiter-Glo, 72 hours; assay type: cell-based; conditions: H460 cells, DMSO condition (no AKR1C3 inhibitor), read-out: CTG H460: Avg IC50 (nM) [Assay Condition: DMSO]
Outline: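 H460 cells were seeded at 3×10^3 per well and grown 24 h at 37 °C, 5% CO2 before compound addition from 10 mM DMSO stocks. After 72 h further incubation, viability was measured by CellTiter-Glo, and IC50 values in nM were derived from the proliferation data.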

[2] = test system: non-small cell lung cancer cell line H460; assay: H460 proliferation assay in the presence of 3 uM ASP9521 (AKR1C3 specific inhibitor); assay type: cell-based, human; conditions: H460 cells, CellTiter-Glo, 72 hours, in the presence of 3 uM ASP9521 added 4 hours prior to compounds; read-out: CTG H460: Avg IC50 (nM) [Assay Condition: ASP9521]
Outline: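 H460 cells pre-incubated 24 h, then exposed to compounds for 72 h at 37 °C, 5% CO2. Viability read by CellTiter-Glo. ASP9521 (3 uM, AKR1C3 inhibitor) added 4 h before compounds.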

SMILES	IC50 [1] [nM]	IC50 [2] [nM]	IC50 ([1]; Homo sapiens, NCI-H460, 72 h) [nM]
CC(C)Oc1cc(Oc2c([N+](=O)[O-])ccc3c2CCC3OP(=O)(N2CC2)N2CC2)ccc1F (stereo not shown) [Example 486]	< 10	967	
CC(C)Oc1cc(Oc2c([N+](=O)[O-])ccc3c2CCC3OP(=O)(N2CC2)N2CC2)ccc1F (stereo not shown) [Example 487]	< 10	1010	
O=[N+]([O-])c1ccc2c(c1Oc1ccc(F)c(OCC3CC3)c1)CC[C@H]2OP(=O)(N1CC1)N1CC1 [Example 488]		857	< 10
O=[N+]([O-])c1ccc2c(c1Oc1ccc(F)c(OCC3CC3)c1)CC[C@@H]2OP(=O)(N1CC1)N1CC1 [Example 489]		1660	< 10
O=[N+]([O-])c1ccc2c(c1Oc1ccc(OC3CCCC3)cc1)CCC2OP(=O)(N1CC1)N1CC1 (stereo not shown) [Example 490]	< 10	788	
O=[N+]([O-])c1ccc2c(c1Oc1ccc(OC3CCCC3)cc1)CCC2OP(=O)(N1CC1)N1CC1 (stereo not shown) [Example 491]	< 10	1940	
O=[N+]([O-])c1ccc2c(c1Oc1ccc(OC3COC3)cc1)CC[C@H]2OP(=O)(N1CC1)N1CC1 [Example 492]		778	< 10
CCOc1cc(Oc2c([N+](=O)[O-])ccc3c2CC[C@@H]3OP(=O)(N2CC2)N2CC2)ccc1F [Example 493]		341	< 10
O=[N+]([O-])c1ccc2c(c1Oc1ccc(F)c(OCC(F)(F)F)c1)CC[C@@H]2OP(=O)(N1CC1)N1CC1 [Example 494]		160	< 10
O=[N+]([O-])c1ccc2c(c1Oc1ccc(F)c(OC3CCOCC3)c1)CC[C@@H]2OP(=O)(N1CC1)N1CC1 [Example 495]		635	< 10
O=[N+]([O-])c1ccc2c(c1Oc1ccc(F)c(OC3CCOCC3)c1)CC[C@H]2OP(=O)(N1CC1)N1CC1 [Example 496]		783	< 10
Cn1cc(Oc2cc(Oc3c([N+](=O)[O-])ccc4c3CC[C@@H]4OP(=O)(N3CC3)N3CC3)ccc2F)cn1 [Example 497]		1010	< 10
CC(C)COc1cc(Oc2c([N+](=O)[O-])ccc3c2CC[C@@H]3OP(=O)(N2CC2)N2CC2)ccc1F [Example 498]		899	< 10
CC(C)COc1cc(Oc2c([N+](=O)[O-])ccc3c2CC[C@H]3OP(=O)(N2CC2)N2CC2)ccc1F [Example 499]		918	< 10
Cc1ncn(-c2cccc(Oc3c([N+](=O)[O-])ccc4c3CC[C@@H]4OP(=O)(N3CC3)N3CC3)c2)n1 [Example 500]		1300	< 10
COc1cc(OCC2CC2)cc(Oc2c([N+](=O)[O-])ccc3c2CC[C@@H]3OP(=O)(N2CC2)N2CC2)c1 [Example 501]		1080	< 10
COc1ccc(Oc2c([N+](=O)[O-])ccc3c2CC[C@@H]3OP(=O)(N2CC2)N2CC2)cc1OCC1CC1 [Example 502]		546	< 10
O=[N+]([O-])c1ccc2c(c1Oc1cc(F)cc(OCC3CC3)c1)CC[C@@H]2OP(=O)(N1CC1)N1CC1 [Example 503]		1660	< 10
CS(=O)(=O)c1ccc(Oc2c([N+](=O)[O-])ccc3c2CCC3OP(=O)(N2CC2)N2CC2)cc1 (stereo not shown) [Example 504]	< 10	288	
CSc1ccc(Oc2c([N+](=O)[O-])ccc3c2CCC3OP(=O)(N2CC2)N2CC2)cc1 (stereo not shown) [Example 505]	< 10	327	
CS(=O)(=O)c1ccc(Oc2c([N+](=O)[O-])ccc3c2CCC3OP(=O)(N2CC2)N2CC2)cc1 (stereo not shown) [Example 506]	< 10	625	
CSc1cc(Oc2c([N+](=O)[O-])ccc3c2CCC3OP(=O)(N2CC2)N2CC2)ccc1F (stereo not shown) [Example 507]	< 10	952	
CS(=O)(=O)c1cc(Oc2c([N+](=O)[O-])ccc3c2CCC3OP(=O)(N2CC2)N2CC2)ccc1F (stereo not shown) [Example 508]	< 10	519	
Cn1cc(Oc2c([N+](=O)[O-])ccc3c2CCC3OP(=O)(N2CC2)N2CC2)ccc1=O (stereo not shown) [Example 509]	< 10	844	
O=[N+]([O-])c1ccc2c(c1Oc1ccc(F)c(Br)c1)CCC2OP(=O)(N1CC1)N1CC1 (stereo not shown) [Example 510]	< 10	535	
O=c1ccc(Oc2c([N+](=O)[O-])ccc3c2CCC3OP(=O)(N2CC2)N2CC2)cn1C1CC1 (stereo not shown) [Example 511]	< 10	429	
O=[N+]([O-])c1ccc2c(c1Oc1ccc(S(=O)(=O)C3CC3)cc1)CC[C@@H]2OP(=O)(N1CC1)N1CC1 [Example 512]		83.3	< 10

SMILES	IC50 [1] [nM]	IC50 [2] [nM]	IC50 ([1]; Homo sapiens, NCI-H460, 72 h) [nM]
O=[N+]([O-])c1ccc2c(c1Oc1ccc(F)c(S(=O)(=O)C3CC3)c1)CC[C@@H]2OP(=O)(N1CC1)N1CC1 [Example 513]		682	< 10
O=[N+]([O-])c1cc2c(cc1Oc1ccc(-c3ccc(F)cc3)c(F)c1)C(OP(=O)(N1CC1)N1CC1)CC2 (stereo not shown) [Example 514]	< 10	993	
O=[N+]([O-])c1cc2c(cc1Oc1ccc(-c3cccnc3)cc1)C(OP(=O)(N1CC1)N1CC1)CC2 (stereo not shown) [Example 515]	10 to 50	7150	
O=C(NC1CCC1)c1ccc(Oc2cc3c(cc2[N+](=O)[O-])CCC3OP(=O)(N2CC2)N2CC2)cc1 (stereo not shown) [Example 516]	< 10	778	
O=[N+]([O-])c1cc2c(cc1Oc1ccc(-c3ccccn3)cc1)C(OP(=O)(N1CC1)N1CC1)CC2 (stereo not shown) [Example 517]	< 10	2050	
O=[N+]([O-])c1cc2c(cc1Oc1ccc(-c3ccccc3)nc1)C(OP(=O)(N1CC1)N1CC1)CC2 (stereo not shown) [Example 518]	< 10	746	
O=[N+]([O-])c1cc2c(cc1Oc1ccc(-c3ccccn3)cc1)C(OP(=O)(N1CC1)N1CC1)CC2 (stereo not shown) [Example 523]	< 10	2070	
O=[N+]([O-])c1cc2c(cc1Oc1ccc(-c3ccccn3)cc1)C(OP(=O)(N1CC1)N1CC1)CC2 (stereo not shown) [Example 524]	< 10	1190	
O=C(NC1CCC1)c1ccc(Oc2cc3c(cc2[N+](=O)[O-])CC[C@H]3OP(=O)(N2CC2)N2CC2)cc1 [Example 526]	< 10	661	
O=[N+]([O-])c1cc2c(cc1Oc1ccc(-c3ccccc3)nc1)[C@@H](OP(=O)(N1CC1)N1CC1)CC2 [Example 527]	< 10	1090	
O=[N+]([O-])c1cc2c(cc1Oc1ccc(-c3ccccc3)nc1)[C@H](OP(=O)(N1CC1)N1CC1)CC2 [Example 528]	< 10	880	
O=C(c1cccc(Oc2cc3cc(COP(=O)(N4CC4)N4CC4)oc3cc2[N+](=O)[O-])c1)N1CCCC1 [Example 530, (6-nitro-5-(3-(pyrrolidine-1-carbonyl)phenoxy)benzofuran-2-yl)methyl di(aziridin-1-yl)phosphinate]		697	< 10
O=[N+]([O-])c1cc2oc(COP(=O)(N3CC3)N3CC3)cc2cc1Oc1cccc(-c2ccccc2)c1 [Example 534]		1200	< 10
O=C(c1cccc(Oc2cc3cc(COP(=O)(N4CC4)N4CC4)oc3cc2[N+](=O)[O-])c1)N1CCC1 [Example 535]		378	< 10
O=[N+]([O-])c1cc2oc(COP(=O)(N3CC3)N3CC3)cc2cc1Oc1cccc(-c2ccccn2)c1 [Example 536]		651	< 10
O=[N+]([O-])c1cc2oc(COP(=O)(N3CC3)N3CC3)cc2cc1Oc1cccc(-c2cccnc2)c1 [Example 537]		3710	< 10
O=[N+]([O-])c1cc2oc(COP(=O)(N3CC3)N3CC3)cc2cc1Oc1ccnc(-c2ccccc2)c1 [Example 538]		711	< 10
CNC(=O)c1cccc(Oc2cc3cc(C(C)OP(=O)(N4CC4)N4CC4)oc3cc2[N+](=O)[O-])c1 (stereo not shown) [Example 539]		2730	< 10
O=[N+]([O-])c1cc2oc(COP(=O)(N3CC3)N3CC3)cc2cc1Oc1ccc(-c2cccnc2)cc1 [Example 540]		1830	< 10
O=[N+]([O-])c1cc2oc(COP(=O)(N3CC3)N3CC3)cc2cc1Oc1cccc(OC(F)(F)F)c1 [Example 542]	< 10	963	
CC(OP(=O)(N1CC1)N1CC1)c1cc2cc(Oc3cccc(-c4ccccn4)c3)c([N+](=O)[O-])cc2o1 (stereo not shown) [Example 543]	< 10	2230	
CC(OP(=O)(N1CC1)N1CC1)c1cc2cc(Oc3cccc(C(=O)N4CCOCC4)c3)c([N+](=O)[O-])cc2o1 (stereo not shown) [Example 544]	10 to 50	3490	
O=C(c1cccc(Oc2cc3cc(COP(=O)(N4CC4)N4CC4)oc3cc2[N+](=O)[O-])c1)N1CCC(F)(F)C1 [Example 545]	< 10	970	
CC(OP(=O)(N1CC1)N1CC1)c1cc2cc(Oc3ccc4c(c3)OC(F)(F)O4)c([N+](=O)[O-])cc2o1 (stereo not shown) [Example 546]		4690	< 10
CC(C)Oc1cccc(Oc2cc3cc(COP(=O)(N4CC4)N4CC4)oc3cc2[N+](=O)[O-])c1 [Example 547]	< 10	1260	
CC(OP(=O)(N1CC1)N1CC1)c1cc2cc(Oc3cccc(C(=O)N4CCC(F)(F)CC4)c3)c([N+](=O)[O-])cc2o1 (stereo not shown) [Example 548]	< 10	2140	
